Data taken from patent US8084467B2, “Pyrazole derivatives as cannabinoid receptor antagonists” (University of Connecticut, priority 2004, dated 2011).
Several values for one entry are separate records, joined by “and”; a condition that tells them apart may be missing. Equal entries are not always repeated. Where two headings read alike, the source gives them in different places.

Legend:
CB1 cannabinoid receptor = target: T1, CB1 cannabinoid receptor (Rattus norvegicus, UniProt P20272); assay: CB1 receptor binding, rat forebrain membranes, [3H] CP-55,940 displacement; details: for Ki: 0.8 nM [3H] CP-55,940
T1 construct: membranes were prepared from rat forebrain membranes; from tissue; host or cells: rat forebrain
Experimental: Some of the inventive analogs were tested for CB2 receptor binding affinity and for CB1 receptor affinity (to determine selectivity). […] The lower the Ki value the higher the binding affinity. […]
Membranes, previously frozen at −80° C., were thawed on ice. To the stirred suspension was added three volumes of TME (25 mM Tris-HCl buffer, 5 mM MgCl2 and 1 mM EDTA) at a pH 7.4. The suspension was incubated at 4° C. for 30 min. At the end of the incubation, the membranes were pelleted and washed three times with TME.
(§1) The treated membranes were subsequently used in the binding assay described below. Approximately 30 μg of membranes were incubated in silanized 96-well microtiter plate with TME containing 0.1% essentially fatty acid-free bovine serum albumin (BSA), 0.8 nM [^3H] […] Radioactivity was detected using MicroScint 20 scintillation cocktail added directly to the dried filterplates, and the filterplates were counted using a Packard Instruments Top-Count. […] Data collected from three independent experiments performed with duplicate determinations was normalized between 100% and 0% specific binding for [^3H] […] The normalized data was analyzed using a 4-parameter nonlinear logistic equation to yield IC50 values.

CB2 receptor = target: T2, CB2 receptor (Mus musculus, UniProt P47936); assay: CB2 receptor binding, mouse spleen membranes, same manner as the CB1 binding assay; details: for Ki: [3H] CP-55,940; for selectivity CB2: ratio of CB1 Ki to CB2 Ki
T2 construct: membranes were prepared from frozen mouse spleen; from tissue; host or cells: mouse spleen
Experimental: Some of the inventive analogs were tested for CB2 receptor binding affinity and for CB1 receptor affinity (to determine selectivity). […] The lower the Ki value the higher the binding affinity.
as §1
Silanized centrifuge tubes were used throughout to minimize receptor loss due to adsorption. The CB2 binding assay was conducted in the same manner as for the CB1 binding assay. The binding affinities (Ki) were also expressed in nanomoles (nM).

rats = assay: Food-reinforced lever pressing in trained rats; format: in vivo, rat; details: IP, various dosages, tested ten minutes after injection, FIG. 1, p<0.05
Experimental: 11 rats were trained to press a lever five times to receive a 45 mg food pellet. The training continued over a time period of several weeks. After the training period all rats received drug treatments once per week. The specific rat receiving a drug treatment and the dosage given were each randomly varied. The treatments comprised administration of a vehicle control solution or various dosages of inventive compound 1-5 in combination with the vehicle control solution. All injections were given IP. Ten minutes after injection the rat was placed in proximity to the lever.
FIG. 1 illustrates a mean (±SEM) number of lever presses in 30 min for treated animals. […] FIG. 1 illustrates a classic dose response curve wherein as the dose of drug (inventive compound 1-5) increases, lever pressing consistently decreases. Without wishing to be bound to any theory, applicants believe that inventive compound 1-5 antagonizes (blocks) the CB1 receptors, thereby suppressing appetite and leading to decreased lever pressing.

[1] = rat forebrain membranes, read-out: affinities Ki CB1
[2] = mouse spleen membranes, read-out: affinities Ki CB2
[3] = affinities Ki CB1, rat forebrain membranes
[4] = affinities Ki CB2, mouse spleen membranes

T2 sequence (P47936 whole entry): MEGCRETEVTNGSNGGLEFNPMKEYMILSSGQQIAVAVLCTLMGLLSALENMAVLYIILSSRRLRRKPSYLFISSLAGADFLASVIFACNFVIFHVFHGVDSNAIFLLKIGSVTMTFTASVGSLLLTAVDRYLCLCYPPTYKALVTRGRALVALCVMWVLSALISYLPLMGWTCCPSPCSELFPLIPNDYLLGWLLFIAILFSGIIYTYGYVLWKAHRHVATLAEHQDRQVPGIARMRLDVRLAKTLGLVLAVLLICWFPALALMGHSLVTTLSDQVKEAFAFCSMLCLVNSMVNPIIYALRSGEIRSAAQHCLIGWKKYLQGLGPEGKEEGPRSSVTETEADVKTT
T1 sequence (P20272 whole entry): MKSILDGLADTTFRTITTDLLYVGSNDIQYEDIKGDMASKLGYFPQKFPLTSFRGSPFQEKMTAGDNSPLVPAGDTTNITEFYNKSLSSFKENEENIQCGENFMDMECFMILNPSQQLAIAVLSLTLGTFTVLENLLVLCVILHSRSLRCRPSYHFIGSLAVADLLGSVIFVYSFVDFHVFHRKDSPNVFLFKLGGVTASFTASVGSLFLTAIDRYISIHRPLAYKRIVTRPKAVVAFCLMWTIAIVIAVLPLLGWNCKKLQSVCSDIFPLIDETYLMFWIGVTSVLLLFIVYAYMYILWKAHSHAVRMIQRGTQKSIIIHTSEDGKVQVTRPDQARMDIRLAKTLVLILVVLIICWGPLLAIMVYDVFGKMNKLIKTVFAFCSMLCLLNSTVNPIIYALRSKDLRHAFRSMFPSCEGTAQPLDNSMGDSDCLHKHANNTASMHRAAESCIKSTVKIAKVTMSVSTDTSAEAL

SMILES	Ki (CB1 cannabinoid receptor; [1])	selectivity CB1 (CB1 cannabinoid receptor; ratio of CB2 Ki to CB1 Ki)	Ki (CB2 receptor; [2])	suppression of food-reinforced lever pressing (number of lever presses in 30 min) (rats)	Ki (CB1 cannabinoid receptor; [3])	Ki (CB2 receptor; [4])	selectivity CB2 (CB2 receptor)	selectivity CB1 (CB1 cannabinoid receptor)
O=C(NN1CCCCC1)c1nn(-c2ccc(Cl)cc2Cl)c(-c2ccc(-c3cccnc3)cc2)c1CO [Compound 1-5]	5.8 nM	398	2310 nM	suppression of food-reinforced lever pressing was statistically significant				
Cc1c(C(=O)NN2CCCCC2)nn(-c2ccc(Cl)cc2Cl)c1-c1ccc(-c2cccnc2)cc1 [Compound 1-4]	11.2 nM	118	1330 nM					
CN(C(=O)c1nn(-c2ccc(Cl)cc2Cl)c(-c2ccc(Br)cc2)c1CO)C1CCCCC1 [Compound 3-1]	29 nM	62.1	1800 nM					
O=C(NC1CCCCC1)c1nn(-c2ccc(Cl)cc2Cl)c(-c2ccc(Br)cc2)c1CBr [Compound 3-17]	46 nM	75.5	3480 nM					
N#Cc1ccc(-c2c(CO)c(C(=O)NN3CCCCC3)nn2-c2ccc(Cl)cc2Cl)cc1 [Compound 3-22]	64 nM	42.8	2740 nM					
Cc1c(C(=O)NN2CCCCC2)nn(-c2ccc(Cl)cc2Cl)c1-c1ccc(-c2nnn(C)n2)cc1 [Compound 2-3]	6 nM	86.2	517 nM					
COCc1c(C(=O)N(C)C2CCCCC2)nn(-c2ccc(Cl)cc2Cl)c1-c1ccc(Br)cc1 [Compound 1-29]		7.5			273 nM	2040 nM		
Cc1c(C(=O)NN2CCCCC2)nn(-c2ccc(Cl)cc2Cl)c1-c1ccc(Br)cc1 [Compound 3-16]	17 nM	52.8	897 nM					
Cc1c(C(=O)NN2CCCCC2)nn(-c2ccc(Cl)cc2Cl)c1-c1ccc(C#N)cc1 [Compound 3-23]	22 nM	213.3	4690 nM					
Cc1c(C=CC23CC4CC(CC(C4)C2)C3)nn(-c2ccc(Cl)cc2Cl)c1-c1ccc(Br)cc1 [Compound 1-25]	17700 nM		4010 nM				4.4	
Cn1nnc(-c2ccc(-c3c(CO)c(C(=O)NC4CCCCC4)nn3-c3ccc(Cl)cc3Cl)cc2)n1 [Compound 2-12]	37 nM	1	36.5 nM					
Cc1c(C(O)C(O)c2ccccc2)nn(-c2ccc(Cl)cc2Cl)c1-c1ccc(Br)cc1 (stereo not shown) [Compound 1-28]	1070 nM	3.7				3930 nM		
Cc1c(C(=O)NC2CC3CCC2(C)C3(C)C)nn(CCCCCCl)c1-c1ccccc1 (stereo not shown) [Compound 4-1]					5.9 nM and 6 nM	2.51 nM and 2.5 nM	2.4	
COCOCc1c(C(=O)NC2CCCCC2)nn(-c2ccc(Cl)cc2Cl)c1-c1ccc(Br)cc1 [Compound 1-13]	15 nM	3.6	54 nM					
Cc1c(C(=O)NN2CCCCC2)nn(-c2ccc(Cl)cc2Cl)c1-c1ccc(-c2nnn[nH]2)cc1 [Compound 2-1]	455 nM	1.5	702 nM					
Cc1c(C(=O)NC2C3CC4CC(C3)CC2C4)nn(CCCCCCl)c1-c1ccccc1 (stereo not shown) [Compound 4-4]					7.64 nM and 7.6 nM	8.46 nM and 8.5 nM		
Cc1c(NC(=O)NC2CCCCC2)nn(-c2ccc(Cl)cc2Cl)c1-c1ccc(I)cc1 [Compound 3-10]	26 nM	838.1	21800 nM					
CN(C(=O)c1nn(-c2ccc(Cl)cc2Cl)c(-c2ccc(-c3ccncc3)cc2)c1CO)C1CCCCC1 [Compound 3-5]	90 nM	3.3	294 nM					

SMILES	Ki (CB1 cannabinoid receptor; [1])	selectivity CB1 (CB1 cannabinoid receptor; ratio of CB2 Ki to CB1 Ki)	Ki (CB2 receptor; [2])	suppression of food-reinforced lever pressing (number of lever presses in 30 min) (rats)	Ki (CB1 cannabinoid receptor; [3])	Ki (CB2 receptor; [4])	selectivity CB2 (CB2 receptor)	selectivity CB1 (CB1 cannabinoid receptor)
CN(C(=O)c1nn(-c2ccc(Cl)cc2Cl)c(-c2ccc(-c3cccnc3)cc2)c1CO)C1CCCCC1 [Compound 3-4]	227 nM	3.3	759 nM					
COCc1c(C(=O)NC2CCCCC2)nn(-c2ccc(Cl)cc2Cl)c1-c1ccc(-c2ccncc2)cc1 [Compound 1-19]	160 nM	18.6	2980 nM					
O=C(Nc1nn(-c2ccc(Cl)cc2Cl)c(-c2ccc(Br)cc2)c1CBr)NC1CCCCC1 [Compound 3-7]	38 nM	3.6	136 nM					
CCOCc1c(C(=O)NC23CC4CC(CC(C4)C2)C3)nn(-c2ccc(Cl)cc2Cl)c1-c1ccc(Br)cc1 [Compound 1-11]	105 nM	452	47500 nM					
Cc1c(NC(=O)NC23CC4CC(CC(C4)C2)C3)nn(-c2ccc(Cl)cc2Cl)c1-c1ccc(Br)cc1 [Compound 3-12]	259 nM	2.9	756 nM					
Cc1c(C(=O)NN2CCCCC2)nn(-c2ccc(Cl)cc2Cl)c1-c1ccc(C(=O)O)cc1 [Compound 3-24]	738 nM	1.3	934 nM					
COCc1c(C(=O)NC2CCCCC2)nn(-c2ccc(Cl)cc2Cl)c1-c1ccc(-c2ccccn2)cc1 [Compound 1-20]	51 nM	5.4	277 nM					
COCc1c(C(=O)NC23CC4CC(CC(C4)C2)C3)nn(-c2ccc(Cl)cc2Cl)c1-c1ccc(Br)cc1 [Compound 1-7]	53 nM		1680 nM					32
O=C(NC1CCCCC1)c1nn(-c2ccc(Cl)cc2Cl)c(-c2ccc(Br)cc2)c1CO [Compound 3-18]	6 nM	353.3	2120 nM					
O=C(NN1CCCCC1)c1nn(-c2ccc(-c3cccnc3)cc2Cl)c(-c2ccc(-c3cccnc3)cc2)c1CO [Compound 3-20]	154 nM	10.9	1680 nM					
CNCc1c(C(=O)NC2CCCCC2)nn(-c2ccc(Cl)cc2Cl)c1-c1ccc(Br)cc1 [Compound 1-15]	172 nM	2.3	397 nM					
Cc1c(C(=O)Nc2ccc3ccccc3c2)nn(CCCCCCl)c1-c1ccccc1 [Compound 4-3]					14.6 nM	15.4 nM		
O=C(NN1CCCCC1)c1nn(-c2ccc(Cl)cc2Cl)c(-c2ccc(-c3cccnc3)cc2)c1CO [Compound 3-21]	76 nM		207 nM					
COCc1c(C(=O)NN2CCCCC2)nn(-c2ccc(Cl)cc2Cl)c1-c1ccc(Br)cc1 [Compound 1-8]		31			19 nM	561 nM		
Cn1nnc(-c2ccc(-c3c(CO)c(C(=O)NN4CCCCC4)nn3-c3ccc(Cl)cc3Cl)cc2)n1 [Compound 2-6]	18 nM	120.5	2170 nM					
O=C(NC12CC3CC(CC(C3)C1)C2)c1cc(-c2ccccc2)n(CCCCCCl)n1 [Compound 4-6]					12.2 nM and 12 nM	4.79 nM and 4.8 nM	2.5	
CN(C(=O)c1nn(-c2ccc(Cl)cc2Cl)c(-c2ccc(-c3nnn(C)n3)cc2)c1CO)C1CCCCC1 [Compound 2-18]	210 nM	3.0	641 nM					
Cc1c(C(=O)NC23CC4CC(CC(C4)C2)C3)nn(CCCCCI)c1-c1ccccc1 [Compound 4-10]					1.34 nM and 1.3 nM	1.01 nM and 1 nM	1.3	
